≈ marks a conversion by molar mass, not a printed value. Each block holds one molecule with its values, some of them ahead of it.
Experiments:
[1] = DPPH antioxidant activity; settings: DPPH method; ascorbic acid's IC50 value normalized to 100%
Procedure: The antioxidant activity was assessed by the DPPH (1,1-diphenyl-2-picryl hydrazyl) method employing ascorbic acid as a standard. A 0.1 mM solution of DPPH was freshly prepared in ethanol. Different dilutions (25, 20, 15, 10 and 5 μg/mL) of compounds 1-12 and ascorbic acid were also prepared in ethanol. The test and standard solutions were prepared by adding DPPH solution (2 mL) to the different dilutions (6 mL each) of the compounds 1-12 and ascorbic acid, respectively. The control solution was prepared by adding DPPH solution (2 mL) to ethanol (6 mL). The resultant mixtures were shaken and kept at 25° C. for half an hour. The absorbance of the test, standard, and control solutions was measured at 517 nm using a UV-Visible spectrophotometer. The experiment was performed in triplicate, and the antioxidant activity was calculated using the following equation,
wherein Ac is the absorbance of the control, and As is the absorbance of the test or standard sample. The IC50 values were obtained from the regression analysis.

human COX-2 = molecular target: T1, human COX-2 (Homo sapiens, UniProt P35354); experiment: In vitro COX-2 inhibitory activity; type: biochemical; settings: for selectivity index: COX-2 over COX-1, selectivity index of celecoxib normalized to 100%; for COX-2 inhibitory activity in comparison to celecoxib: IC50 value of celecoxib normalized to 100%
T1 construct: purchased Cayman Chemicals 560131
T1 sequence (P35354 18-604): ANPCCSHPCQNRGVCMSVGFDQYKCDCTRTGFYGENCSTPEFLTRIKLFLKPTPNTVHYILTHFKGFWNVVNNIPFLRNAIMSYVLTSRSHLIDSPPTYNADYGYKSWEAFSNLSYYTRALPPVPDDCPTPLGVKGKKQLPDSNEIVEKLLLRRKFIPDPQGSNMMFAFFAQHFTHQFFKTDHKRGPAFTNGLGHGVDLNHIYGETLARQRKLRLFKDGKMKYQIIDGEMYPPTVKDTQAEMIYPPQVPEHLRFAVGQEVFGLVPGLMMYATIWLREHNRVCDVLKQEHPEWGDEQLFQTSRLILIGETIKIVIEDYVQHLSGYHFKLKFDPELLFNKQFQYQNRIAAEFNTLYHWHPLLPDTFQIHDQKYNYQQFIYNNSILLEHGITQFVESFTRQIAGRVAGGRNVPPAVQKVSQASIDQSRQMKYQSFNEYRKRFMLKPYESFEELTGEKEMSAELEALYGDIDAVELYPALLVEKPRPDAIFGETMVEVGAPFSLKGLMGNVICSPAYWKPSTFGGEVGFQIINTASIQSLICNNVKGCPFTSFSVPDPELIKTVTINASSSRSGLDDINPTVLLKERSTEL

[2] = test system: Aspergillus niger (A. niger, MTCC 281); experiment: Antimicrobial activity, serial plate dilution method; type: cell-based; settings: MTCC281, against A. niger, Sabouraud dextrose medium
Procedure: (§1) Antimicrobial activity was performed by the serial plate dilution method (Medicinal Chemistry Research, 2017, 26, 1481-1496; Arabian Journal of Chemistry, 2016, 9, 1523-1531) against two Gram-positive bacteria, Staphylococcus aureus (S. aureus, ATCC 25923) and Enterococcus faecalis (E. faecalis, ATCC 29212); two Gram-negative bacteria, Escherichia coli (E. coli, ATCC 25922) and Pseudomonas aeruginosa (P. aeruginosa, ATCC 27853); and two fungi, Candida albicans (C. albicans, ATCC 2091) and Aspergillus niger (A. niger, MTCC 281). Antibacterial activity was performed on nutrient agar medium, whereas Sabouraud dextrose medium was used for the antifungal activity. The compounds 1-12 were tested at 100, 75, 50, 25, and 12.5 μg/mL concentrations. The standard antibiotics, ofloxacin and ketoconazole, were tested at 50, 25, and 12.5 μg/mL concentrations. Sterile dimethyl sulfoxide (DMSO) was used as a solvent for making the desired concentrations of the compounds ofloxacin and ketoconazole. Sterile DMSO also served as a control group. The minimum inhibitory concentrations (MICs) values of the synthesized compounds, ofloxacin and ketoconazole, were determined. The minimum inhibitory concentration (MIC) has been defined as the lowest concentration of a compound that inhibits the visible growth of the microorganisms in the media.

[3] = test system: Candida albicans (C. albicans, ATCC 2091); experiment: as above; type: cell-based; settings: ATCC2091, against C. albicans, Sabouraud dextrose medium
Procedure: as §1

[4] = test system: Enterococcus faecalis (E. faecalis, ATCC 29212); experiment: as above; type: cell-based; settings: ATCC29212, against E. faecalis, nutrient agar medium
Procedure: as §1

[5] = test system: Staphylococcus aureus (S. aureus, ATCC 25923); experiment: as above; type: cell-based; settings: ATCC25923, against S. aureus, nutrient agar medium
Procedure: as §1

Structure (SMILES): COc1ccccc1-n1c(N)c(C#N)c(-c2ccc(-n3nc(-c4ccccc4)ccc3=O)cc2)c(C#N)c1=O [Compound 4, 6-Amino-1-(2-methoxyphenyl)-2-oxo-4-(4-(6-oxo-3-phenylpyridazin-1(6H)-yl)phenyl)-1,2-dihydropyridine-3,5-dicarbonitrile]
antioxidant activity in comparison to ascorbic acid [1]: 71.95%

selectivity index (human COX-2): 101.61%
Structure (SMILES): N#Cc1c(-c2ccc(-n3nc(-c4ccccc4)ccc3=O)cc2)c(C#N)c(=O)n(-c2ccccn2)c1N [Compound 6, 6-Amino-2-oxo-4-(4-(6-oxo-3-phenylpyridazin-1(6H) -yl)phenyl)-2H-[1,2′-bipyridine]-3,5-dicarbonitrile]

selectivity index (human COX-2): 121.73%
Structure (SMILES): N#Cc1c(-c2ccc(-n3nc(-c4ccccc4)ccc3=O)cc2)c(C#N)c(=O)n(-c2nccs2)c1N [Compound 7, 6-Amino-2-oxo-4-(4-(6-oxo-3-phenylpyridazin-1(6H) -yl)phenyl)-1-(thiazol-2-yl)-1,2-dihydro-pyridine-3,5-dicarbonitrile]

Structure (SMILES): Cc1c(-n2c(N)c(C#N)c(-c3ccc(-n4nc(-c5ccccc5)ccc4=O)cc3)c(C#N)c2=O)c(=O)n(-c2ccccc2)n1C [Compound 8, 6-Amino-1-(1,5-dimethyl-3-oxo-2-phenyl-2,3-dihydro-1H-pyrazol-4-yl)-2-oxo-4-(4-(6-oxo-3-phenylpyridazin-1(6H)-yl)phenyl) -1,2-dihydropyridine-3,5-dicarbonitrile]
antioxidant activity in comparison to ascorbic acid [1]: 78.32%

MIC [2]: 12.5 mg/L (≈ 22.7 µM) | MIC [3]: 12.5 mg/L (≈ 22.7 µM) | selectivity index (human COX-2): 111.0% | COX-2 inhibitory activity in comparison to celecoxib (human COX-2): 100.89%
Structure (SMILES): N#Cc1c(-c2ccc(-n3nc(-c4ccccc4)ccc3=O)cc2)c(C#N)c(=O)n(-c2cccc(C(F)(F)F)c2)c1N [Compound 9, 6-amino-2-oxo-4-(4-(6-oxo-3-phenylpyridazin-1(6H) -yl)phenyl)-1-(3-(trifluoromethyl)phenyl)-1,2-dihydropyridine-3,5-dicarbonitrile]
antioxidant activity in comparison to ascorbic acid [1]: 70.90%

MIC [4]: 25 mg/L (≈ 44.5 µM) | MIC [5]: 25 mg/L (≈ 44.5 µM) | selectivity index (human COX-2): 121.20% | COX-2 inhibitory activity in comparison to celecoxib (human COX-2): 105.95%
Structure (SMILES): N#Cc1c(-c2ccc(-n3nc(-c4ccccc4)ccc3=O)cc2)c(C#N)c(=O)n(-c2ccc(S(N)(=O)=O)cc2)c1N [Compound 10, 4-(6-amino-3,5-dicyano-2-oxo-4-(4-(6-oxo-3-phenylpyridazin-1(6H)-yl)phenyl)pyridin-1(2H)-yl)benzenesulfonamide]
antioxidant activity in comparison to ascorbic acid [1]: 74%

Structure (SMILES): O=C1O[C@H]([C@@H](O)CO)C(O)=C1O [ascorbic acid, reference compound]
antioxidant activity in comparison to ascorbic acid [1]: 100%

MIC [2]: 12.5 mg/L (≈ 23.5 µM) | MIC [3]: 12.5 mg/L (≈ 23.5 µM)
Structure (SMILES): CC(=O)N1CCN(c2ccc(OCC3COC(Cn4ccnc4)(c4ccc(Cl)cc4Cl)O3)cc2)CC1 (stereo not shown) [ketoconazole, reference compound]

MIC [4]: 25 mg/L (≈ 69.2 µM) | MIC [5]: 25 mg/L (≈ 69.2 µM)
Structure (SMILES): CC1COc2c(N3CCN(C)CC3)c(F)cc3c(=O)c(C(=O)O)cn1c23 (stereo not shown) [ofloxacin, reference compound]

Source: patent publication US20250115573A1, “PYRIDAZINE-BASED PYRIDINE DERIVATIVES AS BIOLOGICALLY ACTIVE AGENTS” (priority 2023, published 2025)
